Test results published in BindingDB's records for doi:10.1021/acs.jnatprod.8b00574 (Institute of Medicinal and Aromatic Plants, 2018).

What was measured:
[1] = Inhibition of thrombin in human platelet rich plasma assessed as reduction in thrombin-induced platelet aggregation after 5 mins
[2] = Inhibition of thrombin in human platelet rich plasma assessed as reduction in arachidonic acid-induced platelet aggregation after 5 mins
[3] = Inhibition of thrombin in human washed platelets assessed as reduction in thrombin-induced platelet aggregation after 5 mins
[4] = Inhibition of thrombin in human platelet rich plasma assessed as reduction in ADP-induced platelet aggregation after 5 mins

SMILES: CC[C@H](CC[C@@H](C)[C@H]1CC[C@H]2[C@@H]3CC=C4C[C@@H](O)CC[C@]4(C)[C@H]3CC[C@]12C)C(C)C [stigmast-5-en-3beta-ol]
- IC50 [1]: 10.5 µM
- IC50 [2]: 1500 µM
- IC50 [3]: 9.2 µM
- IC50 [4]: 1500 µM
